Test results taken from ChEMBL document CHEMBL5055656, “Synthesis of novel indole-thiazolidinone hybrid structures as promising scaffold with anticancer potential” (Bioorg Med Chem, 2021).
Active and inactive are the calls of the source. The rule behind the calls is not given here.

Assays:
[1] = Selectivity index, ratio of GI50 for human HaCaT cells to GI50 for human MCF7 cells; format: toxicity; settings: HaCaT cells versus MCF7 cells, read-out: RatioGI50
[2] = Selectivity index, ratio of GI50 for human HaCaT cells to GI50 for human HeLa cells; format: toxicity; settings: HaCaT cells versus HeLa cells, read-out: RatioGI50
[3] = Cytotoxicity against mouse BALB/3T3 cells assessed as cell growth inhibition measured after 72 hrs by MTT assay; format: cell-based
[4] = Selectivity index, ratio of GI50 for human HaCaT cells to GI50 for human THP-1 cells
[5] = Selectivity index, ratio of GI50 for mouse BALA/3T3 cells to GI50 for human WM793 cells
MCF7 [6] = assay: Cytotoxicity against human MCF7 cells assessed as cell growth inhibition measured after 72 hrs by MTT assay; format: functional
THP-1 = assay: Cytotoxicity against human THP-1 cells assessed as cell growth inhibition measured after 72 hrs by MTT assay; format: functional
[7] = Selectivity index, ratio of GI50 for mouse BALA/3T3 cells to GI50 for human HCT-116 cells; format: toxicity; settings: BALA/3T3 cells versus HCT-116 cells, read-out: RatioGI50
HeLa = assay: Cytotoxicity against human HeLa cells assessed as cell growth inhibition measured after 72 hrs by MTT assay; format: functional
[8] = Selectivity index, ratio of GI50 for mouse BALA/3T3 cells to GI50 for human THP-1 cells
[9] = Selectivity index, ratio of GI50 for mouse BALA/3T3 cells to GI50 for human MCF7 cells; format: toxicity; settings: BALA/3T3 cells versus MCF7 cells, read-out: RatioGI50
[10] = Selectivity index, ratio of GI50 for human HaCaT cells to GI50 for human A549 cells; format: toxicity; settings: HaCaT cells versus A549 cells, read-out: RatioGI50
HepG2 [11] = assay: Cytotoxicity against human HepG2 cells assessed as cell growth inhibition measured after 72 hrs by MTT assay; format: functional
[12] = Cytotoxicity against human HaCaT cells assessed as cell growth inhibition measured after 72 hrs by MTT assay; format: cell-based
[13] = Selectivity index, ratio of GI50 for mouse BALA/3T3 cells to GI50 for human HepG2 cells; format: toxicity; settings: BALA/3T3 cells versus HepG2 cells, read-out: RatioGI50
[14] = Selectivity index, ratio of GI50 for human HaCaT cells to GI50 for human HepG2 cells; format: toxicity; settings: HaCaT cells versus HepG2 cells, read-out: RatioGI50
A549 = assay: Cytotoxicity against human A549 cells assessed as cell growth inhibition measured after 72 hrs by MTT assay; format: functional
WM793 = assay: Cytotoxicity against human WM793 cells assessed as cell growth inhibition measured after 72 hrs by MTT assay; format: functional
HCT-116 [15] = assay: Cytotoxicity against human HCT-116 cells assessed as cell growth inhibition measured after 72 hrs by MTT assay; format: functional
[16] = Selectivity index, ratio of GI50 for human HaCaT cells to GI50 for human WM793 cells
[17] = Selectivity index, ratio of GI50 for human HaCaT mouse BALA/3T3 cells to GI50 for human A549 cells; format: toxicity; settings: read-out: RatioGI50
[18] = Selectivity index, ratio of GI50 for human HaCaT cells to GI50 for human HCT-116 cells; format: toxicity; settings: HaCaT cells versus HCT-116 cells, read-out: RatioGI50
[19] = Selectivity index, ratio of GI50 for mouse BALA/3T3 cells to GI50 for human HeLa cells; format: toxicity; settings: BALA/3T3 cells versus HeLa cells, read-out: RatioGI50
[20] = Cytotoxicity against human HaCaT cells assessed as cell growth inhibition at 100 uM measured after 72 hrs by MTT assay relative to control; format: cell-based; settings: read-out: Activity
HCT-116 [21] = assay: Induction of cell cycle arrest in human HCT-116 cells assessed as decrease in phospho-Rb expression measured after 24 hrs by Western blot analysis; format: functional, cell-based
HCT-116 [22] = assay: Induction of DNA damage in human HCT-116 cells assessed as increase in tail length incubated at 0.5 uM measured after 24 hrs by alkaline Comet assay; format: functional
HCT-116 [23] = assay: Induction of apoptosis in human HCT-116 cells assessed as activation of cleaved PARP1 expression at 0.7 uM incubated for 24 hrs by Western blot analysis; format: functional, cell-based
BALB/3T3 [24] = assay: Induction of DNA damage in mouse BALB/3T3 cells assessed as increase in olive tail moment incubated at 1.6 uM measured after 24 hrs by alkaline Comet assay; format: cell-based; settings: balb/3t3, 24 h
HepG2 [25] = assay: Induction of DNA damage in human HepG2 cells assessed as increase in olive tail moment incubated at 0.5 uM measured after 24 hrs by alkaline Comet assay; format: functional
MCF7 [26] = assay: Induction of apoptosis in human MCF7 cells assessed as activation of cleaved PARP1 expression at 0.7 uM incubated for 24 hrs by Western blot analysis; format: functional, cell-based
HCT-116 [27] = assay: Induction of DNA damage in human HCT-116 cells assessed as increase in olive tail moment incubated at 0.5 uM measured after 24 hrs by alkaline Comet assay; format: functional
Salmon testes DNA [28] = assay: Displacement of methyl green from salmon sperm DNA at 10 uM measured after 2 hrs by fluorescence plate reader method relative to control; format: cell-based; settings: Salmo salar, Spermatozoa
HepG2 [29] = assay: Induction of apoptosis in human HepG2 cells assessed as effect on phospho-Rb expression at 1.6 uM after 24 hrs by Western blot analysis; format: functional, cell-based
HepG2 [30] = assay: Induction of apoptosis in human HepG2 cells assessed as increase in phospho-Chk2 expression at 1.6 uM after 24 hrs by Western blot analysis; format: functional, cell-based
HepG2 [31] = assay: Induction of apoptosis in human HepG2 cells assessed as increase in Cdk2 expression at 1.6 uM after 24 hrs by Western blot analysis; format: functional, cell-based
HepG2 [32] = assay: Induction of apoptosis in human HepG2 cells assessed as increase in Bax expression at 1.6 uM after 24 hrs by Western blot analysis; format: functional, cell-based
Salmon testes DNA [33] = assay: Displacement of methyl green from salmon sperm DNA at 1 uM measured after 2 hrs by fluorescence plate reader method relative to control; format: cell-based; settings: Salmo salar, Spermatozoa
HepG2 [34] = assay: Induction of DNA damage in human HepG2 cells assessed as increase in tail length incubated at 0.5 uM measured after 24 hrs by alkaline Comet assay; format: functional
BALB/3T3 [35] = assay: Induction of DNA damage in mouse BALB/3T3 cells assessed as increase in tail length incubated at 1.6 uM measured after 24 hrs by alkaline Comet assay; format: cell-based; settings: balb/3t3, 24 h

With `COC(=O)c1[nH]c2ccc(F)cc2c1/C=C1\SC(=O)NC1=S` the selectivity ratio [1] was 1.64, the selectivity ratio [2] was 1.57 and the GI50 at 72 h [3] was 89.2 µM. It also gave a RatioGI50 [4] of 3.02, a RatioGI50 [5] of 1.04 and a GI50 (MCF7 [6]) of 52.5 µM. It also gave a GI50 (THP-1) of 28.5 µM, a selectivity ratio [7] of 1.91 and a GI50 (HeLa) of 55 µM. The RatioGI50 [8] was 3.02, the selectivity ratio [9] was 1.64 and the selectivity ratio [10] was 9.9. It also gave a GI50 (HepG2 [11]) of 60.9 µM, a GI50 at 72 h [12] of 83.1 µM and a selectivity ratio [13] of 1.41. For the same compound, the selectivity ratio [14] was 1.41, the GI50 (A549) was 8.7 µM and the GI50 (WM793) was 83.1 µM. The GI50 (HCT-116 [15]) was 45.1 µM, the RatioGI50 [16] was 1.04 and the selectivity ratio [17] was 9.9. The selectivity ratio [18] was 1.91 and the selectivity ratio [19] was 1.57.
With `COC(=O)c1[nH]c2ccc(F)cc2c1/C=C1\SC(N)=NC1=O` the selectivity ratio [1] was 0.96, the selectivity ratio [2] was 0.7 and the GI50 at 72 h [3] was 30.3 µM. It also gave a RatioGI50 [4] of 0.65, a RatioGI50 [5] of 0.66 and a GI50 (MCF7 [6]) of 67.7 µM. For the same compound, the GI50 (THP-1) was 100 µM, the selectivity ratio [7] was 6.86 and the inhibition at 72 h, 100 µM [20] was 20.2%. For the same compound, the GI50 (HeLa) was 93.3 µM, the RatioGI50 [8] was 0.65 and the selectivity ratio [9] was 0.96. For the same compound, the selectivity ratio [10] was 1.04, the GI50 (HepG2 [11]) was 49.8 µM and the GI50 at 72 h [12] was over 100 µM. For the same compound, the selectivity ratio [13] was 1.31, the selectivity ratio [14] was 1.31 and the GI50 (A549) was 62.7 µM. The GI50 (WM793) was 98.6 µM, the GI50 (HCT-116 [15]) was 9.5 µM and the RatioGI50 [16] was 0.66. It also gave a selectivity ratio [17] of 1.04, a selectivity ratio [18] of 6.86 and a selectivity ratio [19] of 0.7.
In the case of `COc1cccc2c1C(=O)c1c(O)c3c(c(O)c1C2=O)C[C@@](O)(C(=O)CO)C[C@@H]3O[C@H]1C[C@H](N)[C@H](O)[C@H](C)O1` [DOXORUBICIN], the GI50 at 72 h [3] is reported as 0.6 µM, the Activity (HCT-116 [21]) is reported as “Active” and the Activity (HCT-116 [22]) is reported as 28.4%. The GI50 (MCF7 [6]) was 0.4 µM, the GI50 (THP-1) was 0.6 µM and the Activity (HCT-116 [23]) was “Active”. It also gave a GI50 (HeLa) of 0.3 µM, an Activity (BALB/3T3 [24]) of 5.9 and an Activity (HepG2 [25]) of 6.92. The GI50 (HepG2 [11]) was 0.7 µM, the GI50 at 72 h [12] was 0.9 µM and the Activity (MCF7 [26]) was “Active”. The GI50 (A549) was 0.6 µM, the GI50 (WM793) was 0.6 µM and the Activity (HCT-116 [27]) was 10.3. For the same compound, the Activity (Salmon testes DNA [28]) was 69.7%, the GI50 (HCT-116 [15]) was 0.6 µM and the Activity (HepG2 [29]) was “Active”. For the same compound, the Activity (HepG2 [30]) was “Active”, the Activity (HepG2 [31]) was “Active” and the Activity (HepG2 [32]) was “Active”. The Activity (Salmon testes DNA [33]) was 29.2%, the Activity (HepG2 [34]) was 23.4% and the Activity (BALB/3T3 [35]) was 15.9%.
`COC(=O)c1[nH]c2ccc(F)cc2c1/C=C1\SC(=O)NC1=O` gave a selectivity ratio [1] of 1.24, a selectivity ratio [2] of 2.1 and a GI50 at 72 h [3] of over 100 µM. The RatioGI50 [4] was 1.72, the RatioGI50 [5] was 1.2 and the GI50 (MCF7 [6]) was 80.7 µM. For the same compound, the GI50 (THP-1) was 45 µM, the selectivity ratio [7] was 1.48 and the inhibition at 72 h, 100 µM [20] was 43.4%. It also gave a GI50 (HeLa) of 47.6 µM, a RatioGI50 [8] of 1.72 and a selectivity ratio [9] of 1.24. It also gave a selectivity ratio [10] of 3.94, a GI50 (HepG2 [11]) of 29.8 µM and a GI50 at 72 h [12] of over 100 µM. For the same compound, the selectivity ratio [13] was 3.36, the selectivity ratio [14] was 3.36 and the GI50 (A549) was 25.4 µM. For the same compound, the GI50 (WM793) was 83.1 µM, the GI50 (HCT-116 [15]) was 67.6 µM and the RatioGI50 [16] was 1.2. The selectivity ratio [17] was 3.94, the selectivity ratio [18] was 1.48 and the selectivity ratio [19] was 2.1.
In the case of `COC(=O)c1[nH]c2ccc(F)cc2c1C=O`, the selectivity ratio [1] is reported as 0.67, the selectivity ratio [2] is reported as 0.67 and the GI50 at 72 h [3] is reported as 64 µM. It also gave a RatioGI50 [4] of 8.66, a RatioGI50 [5] of 0.81 and a GI50 (MCF7 [6]) of over 100 µM. It also gave a GI50 (THP-1) of 7.7 µM, a selectivity ratio [7] of 0.67 and a GI50 (HeLa) of 100 µM. It also gave a RatioGI50 [8] of 8.66, a selectivity ratio [9] of 0.67 and a selectivity ratio [10] of 1.49. For the same compound, the GI50 (HepG2 [11]) was over 100 µM, the GI50 at 72 h [12] was 69.3 µM and the selectivity ratio [13] was 0.67. For the same compound, the selectivity ratio [14] was 0.67, the GI50 (A549) was 44.8 µM and the GI50 (WM793) was 82.5 µM. The GI50 (HCT-116 [15]) was over 100 µM, the RatioGI50 [16] was 0.81 and the selectivity ratio [17] was 1.49. For the same compound, the selectivity ratio [18] was 0.67 and the selectivity ratio [19] was 0.67.
`COC(=O)c1[nH]c2ccc(F)cc2c1/C=C1\NC(=S)NC1=O` gave a selectivity ratio [1] of 1.57, a selectivity ratio [2] of 1.72 and a GI50 at 72 h [3] of over 100 µM. It also gave a RatioGI50 [4] of 1.72, a RatioGI50 [5] of 1.19 and a GI50 (MCF7 [6]) of 63.7 µM. It also gave a GI50 (THP-1) of 58.3 µM, a selectivity ratio [7] of 1.89 and an inhibition at 72 h, 100 µM [20] of 43.3%. For the same compound, the GI50 (HeLa) was 58.1 µM, the RatioGI50 [8] was 1.72 and the selectivity ratio [9] was 1.57. The selectivity ratio [10] was 2.03, the GI50 (HepG2 [11]) was 33.9 µM and the GI50 at 72 h [12] was over 100 µM. It also gave a selectivity ratio [13] of 2.95, a selectivity ratio [14] of 2.95 and a GI50 (A549) of 49.2 µM. It also gave a GI50 (WM793) of 84.2 µM, a GI50 (HCT-116 [15]) of 53 µM and a RatioGI50 [16] of 1.19. For the same compound, the selectivity ratio [17] was 2.03, the selectivity ratio [18] was 1.89 and the selectivity ratio [19] was 1.72.
